The values below come from PubChem BioAssay (NCI).

Where “and” joins values, the source holds several entries; their conditions need not be identical. Equal entries are not always repeated.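 Exposure lasted 48 hours, with cells grown in 96-well plates and compounds tested at five concentrations. At the GI50, growth is halved. Definition used: TGI = concentration required for complete inhibition of growth.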 Bounds are passed on as bounds.

Among the test systems are 786-0 renal; NCI-H226 lung; DU-145 prostate; IGROV1 ovarian; UO-31 renal; HCC-2998 colon; OVCAR-8 ovarian; PC-3 prostate; UACC-62 melanoma; T-47D breast.
What all share (experiment): growth of human tumour cells (NCI), 48 h

Consider `O=C(O)c1ccc(NS(=O)(=O)c2cccc3cccnc23)cc1`, for which the GI50 in the test with 786-0 renal, with NCI-H226 lung, in the test with DU-145 prostate, with IGROV1 ovarian, with UO-31 renal and in the test on HCC-2998 colon was over 100 µM in each case. Moreover, the GI50 in the test on OVCAR-8 ovarian, with PC-3 prostate, in the test with UACC-62 melanoma and in the test with T-47D breast was over 100 µM throughout. The TGI in the test with 786-0 renal, in the test on NCI-H226 lung, with DU-145 prostate, with IGROV1 ovarian, in the test on UO-31 renal and in the test on HCC-2998 colon was over 100 µM in each case. The TGI in the test on OVCAR-8 ovarian, with PC-3 prostate, with UACC-62 melanoma and with T-47D breast was over 100 µM in each case.
In the case of `CCN(CC)CCCC(C)Nc1cnc(C(=O)Nc2cc(F)cc3cccnc23)cn1` (stereo unspecified), the GI50 in the test on 786-0 renal is 8.17 µM and 1.33 µM; in the test on NCI-H226 lung it was 4.71 µM and 1.99 µM; in the test on DU-145 prostate, 10.5 µM and 1.48 µM; in the test with IGROV1 ovarian, 3.03 µM and 0.379 µM; in the test with UO-31 renal, 4.12 µM and 0.933 µM; in the test with HCC-2998 colon, 5.01 µM and 1.53 µM. The GI50 in the test on OVCAR-8 ovarian is 7.03 µM and 1.29 µM; in the test with PC-3 prostate, 3.55 µM and 0.614 µM; in the test with UACC-62 melanoma, 2.28 µM and 1.27 µM; in the test on T-47D breast, 0.759 µM and 0.505 µM. For the same compound, the TGI was 22 µM and 2.7 µM in the test on 786-0 renal; 18.5 µM and 4.13 µM in the test on NCI-H226 lung; 23.1 µM and 2.84 µM in the test on DU-145 prostate; 12 µM and 1.4 µM in the test with IGROV1 ovarian; 17.1 µM and 2.23 µM with UO-31 renal; 18.4 µM and 2.97 µM in the test with HCC-2998 colon. Further, the TGI in the test on OVCAR-8 ovarian was 20.2 µM and 5.77 µM; in the test with PC-3 prostate, 15.3 µM and 2.24 µM; in the test on UACC-62 melanoma, 5.5 µM and 2.69 µM; with T-47D breast it was 20.2 µM and 5.18 µM.
Take `COc1ccc(C2=C(c3cn(C)c4ccccc34)C(=O)NC2=O)cc1OC`: the GI50 in the test on 786-0 renal is 8.28 µM; in the test on NCI-H226 lung, 10.8 µM; in the test on DU-145 prostate, over 19.4 µM; with IGROV1 ovarian, 7.99 µM; in the test with UO-31 renal it was 4.83 µM; with HCC-2998 colon, over 22.3 µM. The GI50 in the test with OVCAR-8 ovarian is 15.6 µM; with PC-3 prostate, 7.29 µM; with UACC-62 melanoma it was 8.12 µM; with T-47D breast, 7.21 µM. Moreover, the TGI in the test with 786-0 renal, in the test with NCI-H226 lung, with DU-145 prostate, with IGROV1 ovarian, in the test with UO-31 renal and with HCC-2998 colon was over 25 µM throughout. Moreover, the TGI with OVCAR-8 ovarian, in the test with PC-3 prostate, in the test with UACC-62 melanoma and in the test on T-47D breast was over 25 µM each time.
As for `COC[C@H]1OC(=O)c2coc3c2[C@@]1(C)C1=C(C3=O)[C@@H]2CCC(=O)[C@@]2(C)C[C@H]1OC(C)=O`, the TGI is over 100 µM in the test on 786-0 renal; over 100 µM with NCI-H226 lung; over 100 µM in the test with DU-145 prostate; 19.3 µM in the test with IGROV1 ovarian; over 72.8 µM in the test on UO-31 renal; 20 µM with HCC-2998 colon. For the same compound, the TGI with OVCAR-8 ovarian was over 100 µM; in the test on PC-3 prostate, over 100 µM; in the test on UACC-62 melanoma, 17.5 µM; with T-47D breast it was over 46.2 µM. The GI50 with NCI-H226 lung is 11 µM.
`NC1CCC[C@@H](O)[C@H]1O` (stereo partly specified): the TGI in the test on 786-0 renal, in the test with NCI-H226 lung, in the test on DU-145 prostate, with IGROV1 ovarian, with UO-31 renal and with HCC-2998 colon was over 100 µM throughout. The TGI in the test with OVCAR-8 ovarian, in the test with PC-3 prostate, with UACC-62 melanoma and in the test with T-47D breast was over 100 µM throughout.
As to `Cc1ccc(C(=O)N/N=C/c2cccc(Oc3ccccc3)c2)cn1`, the GI50 in the test on 786-0 renal was 29.1 µM; in the test with NCI-H226 lung, over 64.5 µM; with DU-145 prostate it was 18.7 µM; in the test on IGROV1 ovarian, 19 µM; in the test with UO-31 renal, 19.6 µM; with HCC-2998 colon, 16.1 µM. The GI50 was 15.8 µM in the test with OVCAR-8 ovarian, 7.75 µM in the test on PC-3 prostate, 4.67 µM with UACC-62 melanoma and 6.3 µM with T-47D breast. Also, the TGI with 786-0 renal, with NCI-H226 lung, with DU-145 prostate, with IGROV1 ovarian, in the test on UO-31 renal and in the test with HCC-2998 colon was over 100 µM each time. Besides, the TGI was over 100 µM in the test with OVCAR-8 ovarian, over 100 µM in the test with PC-3 prostate, over 100 µM with UACC-62 melanoma and over 74.3 µM in the test with T-47D breast.
For the compound `CC1(C)N=C(N)N=C(N)N1c1cccc(CCCCc2ccc(S(=O)(=O)F)cc2Cl)c1`, the GI50 with 786-0 renal is 3.28 µM; in the test on NCI-H226 lung, 9.37 µM; with DU-145 prostate it was 4.06 µM; in the test with IGROV1 ovarian, 0.313 µM; in the test with UO-31 renal, 14.6 µM; with HCC-2998 colon, 5.47 µM. For the same compound, the GI50 with OVCAR-8 ovarian is 6.17 µM; with PC-3 prostate, 0.581 µM; in the test on UACC-62 melanoma, 0.494 µM; in the test on T-47D breast, 14 µM. The TGI in the test on 786-0 renal is 24.5 µM; with NCI-H226 lung, 50.6 µM; in the test on DU-145 prostate, over 59.8 µM; in the test with IGROV1 ovarian it was over 38.5 µM; with UO-31 renal it was over 100 µM; with HCC-2998 colon, 38.8 µM. Further, the TGI in the test with OVCAR-8 ovarian was over 61.4 µM; with PC-3 prostate, over 100 µM; in the test on UACC-62 melanoma, 17.1 µM; in the test with T-47D breast it was 34.5 µM.
For `COc1cc(-c2cn(-c3ccc(Cl)cc3)c(=O)[nH]2)cc(OC)c1OC`, the GI50 in the test on 786-0 renal, in the test on NCI-H226 lung, with DU-145 prostate, in the test on IGROV1 ovarian, in the test on UO-31 renal and with HCC-2998 colon was over 100 µM in each case. For the same compound, the GI50 with OVCAR-8 ovarian, with PC-3 prostate, in the test with UACC-62 melanoma and in the test on T-47D breast was over 100 µM each time. For the same compound, the TGI in the test with 786-0 renal, with NCI-H226 lung, in the test with DU-145 prostate, in the test with IGROV1 ovarian, with UO-31 renal and with HCC-2998 colon was over 100 µM each time. Further, the TGI in the test on OVCAR-8 ovarian, in the test on PC-3 prostate, with UACC-62 melanoma and with T-47D breast was over 100 µM in each case.
